Reference: patent publication US20240246937A1 (MERCK SHARP & DOHME LLC, priority 2021, published 2024)

Molecular target: recombinant IL4I1 (Homo sapiens (Human), UniProt Q96RQ9)
Assay: IL4I1 Enzymatic Assay (Amplex Red/HRP coupled fluorescence detection of H2O2)
Type: biochemical
Conditions: 240 min; recombinant IL4I1, four-hour pre-incubation with compound
How it was run: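 Ten-point, 1:3 compound titrations were fitted by four-parameter sigmoidal regression to give EC50. Resorufin fluorescence (544/590 nm) from Amplex Red/HRP-coupled H2O2 detection was read 120 min after adding 1 mM each aromatic amino acid to 1 nM IL4I1, following a 4 h compound pre-incubation in pH 7.0 Hepes buffer.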

Chain of recombinant IL4I1 (Q96RQ9 22-567): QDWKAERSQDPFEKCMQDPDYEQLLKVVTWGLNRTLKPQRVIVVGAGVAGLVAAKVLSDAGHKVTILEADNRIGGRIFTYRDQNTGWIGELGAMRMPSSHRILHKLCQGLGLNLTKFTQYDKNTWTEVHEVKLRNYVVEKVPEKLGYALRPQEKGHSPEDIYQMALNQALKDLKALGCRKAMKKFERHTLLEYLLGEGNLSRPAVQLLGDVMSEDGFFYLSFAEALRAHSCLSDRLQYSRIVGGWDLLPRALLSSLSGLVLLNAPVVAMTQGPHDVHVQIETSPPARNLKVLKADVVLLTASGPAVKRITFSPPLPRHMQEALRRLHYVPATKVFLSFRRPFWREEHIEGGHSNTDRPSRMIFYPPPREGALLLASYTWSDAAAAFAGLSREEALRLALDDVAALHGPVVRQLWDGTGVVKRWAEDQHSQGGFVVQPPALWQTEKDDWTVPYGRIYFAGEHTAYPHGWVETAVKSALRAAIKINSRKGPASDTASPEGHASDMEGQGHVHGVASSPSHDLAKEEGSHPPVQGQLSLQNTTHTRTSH

Row | Compound | EC50 [nM]
1 | O=C1C(=O)N(C23CC(C2)C3)CCN1Cc1ccc(-n2nccn2)cn1 [Example 359, 1-((5-(2H-1,2,3-triazol-2-yl)pyridin-2-yl)methyl)-4-(bicyclo[1.1.1]pentan-1-yl)piperazine-2,3-dione] | 22
2 | O=C1C(=O)N(C2CCCC2)CCN1Cc1ncc(-c2nccs2)cn1 [Example 361, 1-cyclopentyl-4-((5-(thiazol-2-yl)pyrimidin-2-yl)methyl)piperazine-2,3-dione] | 96
3 | O=C1C(=O)N(C2CCCC2)CCN1Cc1ccc(-c2nccs2)nn1 [Example 362, 1-cyclopentyl-4-((6-(thiazol-2-yl)pyridazin-3-yl)methyl)piperazine-2,3-dione] | 22
4 | O=C1C(=O)N(C2CCCC2)CCN1Cc1nnc(-c2nccs2)s1 [Example 363, 1-cyclopentyl-4-((5-(thiazol-2-yl)-1,3,4-thiadiazol-2-yl)methyl)piperazine-2,3-dione] | 25
5 | O=C1C(=O)N(C2CCCC2)CCN1Cc1ccc(-c2ccccn2)nn1 [Example 368, 1-cyclopentyl-4-((6-(pyridin-2-yl)pyridazin-3-yl)methyl)piperazine-2,3-dione] | 28
6 | O=C1C(=O)N(C2CCC2)CCN1Cc1nnc(-c2ccccn2)s1 [Example 369, 1-cyclobutyl-4-((5-(pyridin-2-yl)-1,3,4-thiadiazol-2-yl)methyl)piperazine-2,3-dione] | 32
7 | O=c1c(=O)n(C2CCC2)ccn1Cc1nnc(-c2ccccn2)s1 [Example 370, 1-cyclobutyl-4-((5-(pyridin-2-yl)-1,3,4-thiadiazol-2-yl)methyl)-1,4-dihydropyrazine-2,3-dione] | 20
8 | O=c1c(=O)n([C@H]2C[C@H]3C[C@H]3C2)ccn1Cc1ncc(-c2nccs2)cc1F [Example 371, 1-((cis)-bicyclo[3.1.0]hexan-3-yl)-4-((3-fluoro-5-(thiazol-2-yl)pyridin-2-yl)methyl)-1,4-dihydropyrazine-2,3-dione] | 42
9 | O=c1c(=O)n([C@H]2C[C@@H](c3ccccc3)C2)ccn1Cc1nnc(-c2nccs2)s1 [Example 372, 1-((cis)-3-phenylcyclobutyl)-4-((5-(thiazol-2-yl)-1,3,4-thiadiazol-2-yl)methyl)-1,4-dihydropyrazine-2,3-dione] | 23
10 | CC1(n2ccn(Cc3ccc(-c4nccs4)nn3)c(=O)c2=O)CC1 [Example 377, 1-(1-methylcyclopropyl)-4-((6-(thiazol-2-yl)pyridazin-3-yl)methyl)-1,4-dihydropyrazine-2,3-dione] | 71
11 | O=C1C(=O)N(C2CCCC2)CCN1Cc1ncc(-n2nccn2)cn1 [Example 378, 1-((5-(2H-1,2,3-triazol-2-yl)pyrimidin-2-yl)methyl)-4-cyclopentylpiperazine-2,3-dione] | 138
12 | O=C1C(=O)N(C2CCCC2)CCN1Cc1ccc(-n2nccn2)cc1F [Example 379, 1-cyclopentyl-4-(2-fluoro-4-(2H-1,2,3-triazol-2-yl)benzyl)piperazine-2,3-dione] | 24
13 | CC1(n2ccn(Cc3ccc(-n4cccn4)cn3)c(=O)c2=O)CC1 [Example 381, 1-((5-(1H-pyrazol-1-yl)pyridin-2-yl)methyl)-4-(1-methylcyclopropyl)-1,4-dihydropyrazine-2,3-dione] | 40
14 | O=c1c(=O)n(C23CC(C2)C3)ccn1Cc1ccc(-n2cccn2)cn1 [Example 382, 1-((5-(1H-pyrazol-1-yl)pyridin-2-yl)methyl)-4-(bicyclo[1.1.1]pentan-1-yl)-1,4-dihydropyrazine-2,3-dione] | 25
15 | CC1(n2ccn(Cc3ccc(-n4cccn4)nc3)c(=O)c2=O)CC1 [Example 383, 1-((6-(1H-pyrazol-1-yl)pyridin-3-yl)methyl)-4-(1-methylcyclopropyl)-1,4-dihydropyrazine-2,3-dione] | 26
16 | CC1(n2ccn(Cc3ccc(-n4ccnn4)cn3)c(=O)c2=O)CC1 [Example 385, 1-((5-(1H-1,2,3-triazol-1-yl)pyridin-2-yl)methyl)-4-(1-methylcyclopropyl)-1,4-dihydropyrazine-2,3-dione] | 42
17 | N#CC1(n2ccn(Cc3ccc(-n4cccn4)cn3)c(=O)c2=O)CC1 [Example 386, 1-(4-((5-(1H-pyrazol-1-yl)pyridin-2-yl)methyl)-2,3-dioxo-3,4-dihydropyrazin-1(2H)-yl)cyclopropane-1-carbonitrile] | 225
18 | N#CC1(n2ccn(Cc3ccc(-n4ccnn4)cn3)c(=O)c2=O)CC1 [Example 387, 1-(4-((5-(1H-1,2,3-triazol-1-yl)pyridin-2-yl)methyl)-2,3-dioxo-3,4-dihydropyrazin-1(2H)-yl)cyclopropane-1-carbonitrile] | 677
19 | O=c1c(=O)n(C23CC(C2)C3)ccn1Cc1ccc(-n2ccnn2)cn1 [Example 388, 1-((5-(1H-1,2,3-triazol-1-yl)pyridin-2-yl)methyl)-4-(bicyclo[1.1.1]pentan-1-yl)-1,4-dihydropyrazine-2,3-dione] | 23
20 | N#CC1(n2ccn(Cc3ccc(-n4cccn4)nc3)c(=O)c2=O)CC1 [Example 389, 1-(4-((6-(1H-pyrazol-1-yl)pyridin-3-yl)methyl)-2,3-dioxo-3,4-dihydropyrazin-1(2H)-yl)cyclopropane-1-carbonitrile] | 369
21 | N#CC1(n2ccn(Cc3ccc(-n4ccnn4)nc3)c(=O)c2=O)CC1 [Example 390, 1-(4-((6-(1H-1,2,3-triazol-1-yl)pyridin-3-yl)methyl)-2,3-dioxo-3,4-dihydropyrazin-1(2H)-yl)cyclopropane-1-carbonitrile] | 343
22 | N#CC1(n2ccn(Cc3ccc(-n4nccn4)nc3)c(=O)c2=O)CC1 [Example 391, 1-(4-((6-(2H-1,2,3-triazol-2-yl)pyridin-3-yl)methyl)-2,3-dioxo-3,4-dihydropyrazin-1(2H)-yl)cyclopropane-1-carbonitrile] | 170
23 | O=C1C(=O)N(C2CCCC2)CCN1Cc1ccc(N2CCC(F)(F)C2)nc1 [Example 392, 1-cyclopentyl-4-((6-(3,3-difluoropyrrolidin-1-yl)pyridin-3-yl)methyl)piperazine-2,3-dione] | 31
24 | O=C1C(=O)N(C2CCCC2)CCN1Cc1ccc(N2CCC(F)C2)nc1 (stereo not drawn) [Example 393, 1-cyclopentyl-4-((6-(3-fluoropyrrolidin-1-yl)pyridin-3-yl)methyl)piperazine-2,3-dione] | 33
25 | O=C1C(=O)N(C2CCC2)CCN1Cc1ccc(-c2cnco2)nn1 [Example 394, 1-cyclobutyl-4-((6-(oxazol-5-yl)pyridazin-3-yl)methyl)piperazine-2,3-dione] | 31

Molecules with a lower EC50, results first:

Row | EC50 [nM] | Compound
26 | 17 | O=C1C(=O)N(C2CCCC2)CCN1Cc1ccc(-c2nccs2)nc1 [Example 364, 1-cyclopentyl-4-((6-(thiazol-2-yl)pyridin-3-yl)methyl)piperazine-2,3-dione]
27 | 17 | O=C1C(=O)N(C2CCC2)CCN1Cc1ccc(-c2nccs2)nn1 [Example 365, 1-cyclobutyl-4-((6-(thiazol-2-yl)pyridazin-3-yl)methyl)piperazine-2,3-dione]
28 | 17 | O=C1C(=O)N(C2CCCC2)CCN1Cc1ccc(-n2nccn2)cn1 [Example 380, 1-((5-(2H-1,2,3-triazol-2-yl)pyridin-2-yl)methyl)-4-cyclopentylpiperazine-2,3-dione]
29 | 16 | O=c1c(=O)n(C23CC(C2)C3)ccn1Cc1ccc(-n2nccn2)cn1 [Example 360, 1-((5-(2H-1,2,3-triazol-2-yl)pyridin-2-yl)methyl)-4-(bicyclo[1.1.1]pentan-1-yl)-1,4-dihydropyrazine-2,3-dione]
30 | 14 | O=C1C(=O)N(C2CCC2)CCN1Cc1ncc(-c2ccccn2)s1 [Example 376, 1-cyclobutyl-4-((5-(pyridin-2-yl)thiazol-2-yl)methyl)piperazine-2,3-dione]
31 | 9 | O=c1c(=O)n(C23CC(C2)C3)ccn1Cc1ccc(-c2nccs2)nn1 [Example 366, 1-(bicyclo[1.1.1]pentan-1-yl)-4-((6-(thiazol-2-yl)pyridazin-3-yl)methyl)-1,4-dihydropyrazine-2,3-dione]
32 | 9 | O=c1c(=O)n(C2CCC2)ccn1Cc1ccc(-c2nccs2)nn1 [Example 367, 1-cyclobutyl-4-((6-(thiazol-2-yl)pyridazin-3-yl)methyl)-1,4-dihydropyrazine-2,3-dione]
33 | 9 | O=c1c(=O)n(C23CC(C2)C3)ccn1Cc1ccc(-n2cccn2)nc1 [Example 384, 1-((6-(1H-pyrazol-1-yl)pyridin-3-yl)methyl)-4-(bicyclo[1.1.1]pentan-1-yl)-1,4-dihydropyrazine-2,3-dione]
34 | 8 | O=c1c(=O)n(C2CCC2)ccn1Cc1cc(-c2ccccn2)on1 [Example 373, 1-cyclobutyl-4-((5-(pyridin-2-yl)isoxazol-3-yl)methyl)-1,4-dihydropyrazine-2,3-dione]
35 | 8 | O=C1C(=O)N([C@H]2C[C@H]3C[C@H]3C2)CCN1Cc1ccc(-c2nccs2)nn1 [Example 374, 1-((cis)-bicyclo[3.1.0]hexan-3-yl)-4-((6-(thiazol-2-yl)pyridazin-3-yl)methyl)piperazine-2,3-dione]
36 | 8 | O=C1C(=O)N(C2CCC2)CCN1Cc1ccc(-c2cncs2)nn1 [Example 395, 1-cyclobutyl-4-((6-(thiazol-5-yl)pyridazin-3-yl)methyl)piperazine-2,3-dione]
37 | 6 | O=c1c(=O)n([C@H]2C[C@H]3C[C@H]3C2)ccn1Cc1cc(-c2ccccn2)on1 [Example 375, 1-((cis)-bicyclo[3.1.0]hexan-3-yl)-4-((5-(pyridin-2-yl)isoxazol-3-yl)methyl)-1,4-dihydropyrazine-2,3-dione]
38 | 2 | O=C1C(=O)N(C2CCCC2)CCN1Cc1cc(-c2ccccc2)no1 [Example 358A, 1-cyclopentyl-4-((3-phenylisoxazol-5-yl)methyl)piperazine-2,3-dione]
39 | 1 | O=c1c(=O)n(C2CCCC2)ccn1Cc1cc(-c2ccccc2)no1 [Example 358B, 1-cyclopentyl-4-((3-phenylisoxazol-5-yl)methyl)-1,4-dihydropyrazine-2,3-dione]
